Data from US10633397B2, “Substituted polycyclic pyridone derivatives and prodrugs thereof” (priority 2015, dated 2020).

Assays:
[1] = tested on: influenza virus; assay: CPE inhibitory effect confirming assay; format: cell-based; details: unidentified influenza virus, 72 h, read-out: CPE_EC50
[2] = biological target: T1, CYP2C9 (Homo sapiens, UniProt P11712); assay: biochemical; format: in vitro ADME
T1 construct: Using commercially available pooled human hepatic microsome; from tissue
Description: (§1) Test Example 3: CYP Inhibition Test
(§2) Using commercially available pooled human hepatic microsome, and employing, as markers, 7-ethoxyresorufin O-deethylation (CYP1A2), tolbutamide methyl-hydroxylation (CYP2C9), mephenytoin 4′-hydroxylation (CYP2C19), dextromethorphan O-demethylation (CYP2D6), and terfenedine hydroxylation (CYP3A4) as typical substrate metabolism reactions of human main five CYP enzyme forms (CYP1A2, 2C9, 2C19, 2D6, 3A4), an inhibitory degree of each metabolite production amount by a compound of the present invention was assessed.
(§3) The reaction conditions were as follows: substrate, 0.5 μmol/L ethoxyresorufin (CYP1A2), 100 μmol/L tolbutamide (CYP2C9), 50 μmol/L S-mephenytoinmephenitoin (CYP2C19), 5 μmol/L dextromethorphan (CYP2D6), 1 μmol/L terfenedine (CYP3A4); reaction time, 15 minutes; reaction temperature, 37° C.; enzyme, pooled human hepatic microsome 0.2 mg protein/mL; concentration of a compound of the present invention, 1, 5, 10, 20 μmol/L (four points).
(§4) Each five kinds of substrates, human hepatic microsome, or a compound of the present invention in 50 mmol/L Hepes buffer as a reaction solution was added to a 96-well plate at the composition as described above, NADPH, as a cofactor was added to initiate metabolism reactions as markers and, after the incubation at 37° C. for 15 minutes, a methanol/acetonitrile=1/1 (v/v) solution was added to stop the reaction. After the centrifugation at 3000 rpm for 15 minutes, resorufin (CYP1A2 metabolite) in the supernatant was quantified by a fluorescent multilabel counter and toltributamide hydroxide (CYP2C9P metabolite), mephenytoin 4′ hydroxide (CYP2C19 metabolite), […] (CYP2D6 metabolite), and terfenadine alcohol (CYP3A4 metabolite) were quantified by LC/MS/MS.

[3] = biological target: T2, CYP2C19 (Homo sapiens, UniProt P33261); assay: biochemical; format: in vitro ADME
T2 construct: Using commercially available pooled human hepatic microsome; from tissue
T2 sequence (P33261 whole entry): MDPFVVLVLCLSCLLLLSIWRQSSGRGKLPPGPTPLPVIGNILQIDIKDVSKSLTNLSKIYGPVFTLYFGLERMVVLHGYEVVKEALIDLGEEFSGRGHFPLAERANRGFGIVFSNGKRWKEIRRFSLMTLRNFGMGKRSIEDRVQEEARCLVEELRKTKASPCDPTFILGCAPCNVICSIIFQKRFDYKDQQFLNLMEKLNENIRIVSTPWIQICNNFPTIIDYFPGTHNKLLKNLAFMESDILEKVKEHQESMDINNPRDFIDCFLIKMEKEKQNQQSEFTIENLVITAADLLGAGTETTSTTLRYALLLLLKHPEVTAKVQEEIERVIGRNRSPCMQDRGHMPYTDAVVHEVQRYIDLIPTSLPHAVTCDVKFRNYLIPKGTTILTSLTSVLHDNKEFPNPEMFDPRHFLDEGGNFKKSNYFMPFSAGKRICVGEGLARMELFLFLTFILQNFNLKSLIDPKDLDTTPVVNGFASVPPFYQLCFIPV
Description: as §1, §2, §3, §4

[4] = biological target: T3, CYP1A2 (Homo sapiens, UniProt P05177); assay: biochemical; format: in vitro ADME
T3 construct: Using commercially available pooled human hepatic microsome; from tissue
T3 sequence (P05177 1-516): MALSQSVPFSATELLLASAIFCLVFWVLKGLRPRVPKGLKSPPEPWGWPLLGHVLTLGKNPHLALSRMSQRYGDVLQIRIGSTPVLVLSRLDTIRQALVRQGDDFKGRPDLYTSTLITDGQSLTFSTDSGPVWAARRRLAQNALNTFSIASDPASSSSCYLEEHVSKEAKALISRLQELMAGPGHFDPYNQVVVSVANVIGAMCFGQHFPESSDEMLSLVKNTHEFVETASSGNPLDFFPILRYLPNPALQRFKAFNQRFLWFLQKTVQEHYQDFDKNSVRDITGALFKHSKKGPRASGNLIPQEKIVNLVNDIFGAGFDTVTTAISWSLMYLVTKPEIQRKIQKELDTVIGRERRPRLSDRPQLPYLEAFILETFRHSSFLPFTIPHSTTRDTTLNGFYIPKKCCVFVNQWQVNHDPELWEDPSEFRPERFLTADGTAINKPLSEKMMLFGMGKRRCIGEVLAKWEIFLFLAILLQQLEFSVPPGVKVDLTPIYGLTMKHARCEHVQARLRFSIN
Description: as §1, §2, §3, §4

[5] = biological target: T4, CYP2D6 (Homo sapiens, UniProt P10635); assay: biochemical; format: in vitro ADME
T4 construct: Using commercially available pooled human hepatic microsome; from tissue
T4 sequence (P10635 whole entry): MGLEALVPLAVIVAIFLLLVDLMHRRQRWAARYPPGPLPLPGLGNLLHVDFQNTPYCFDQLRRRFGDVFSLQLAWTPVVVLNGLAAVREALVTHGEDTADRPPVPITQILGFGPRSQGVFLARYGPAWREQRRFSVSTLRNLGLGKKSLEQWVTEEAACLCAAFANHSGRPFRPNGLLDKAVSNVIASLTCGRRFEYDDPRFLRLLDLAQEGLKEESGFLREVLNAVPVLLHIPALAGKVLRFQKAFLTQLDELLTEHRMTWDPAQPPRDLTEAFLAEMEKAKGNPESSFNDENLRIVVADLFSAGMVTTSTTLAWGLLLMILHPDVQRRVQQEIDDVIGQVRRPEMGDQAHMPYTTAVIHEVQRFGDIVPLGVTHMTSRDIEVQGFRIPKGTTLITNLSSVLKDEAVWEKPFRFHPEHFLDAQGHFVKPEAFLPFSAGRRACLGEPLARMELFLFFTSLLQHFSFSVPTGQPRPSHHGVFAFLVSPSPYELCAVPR
Description: as §1, §2, §3, §4

[6] = biological target: T5, CYP3A4 (Homo sapiens, UniProt P08684); assay: biochemical; format: in vitro ADME
T5 construct: Using commercially available pooled human hepatic microsome; from tissue
T5 sequence (P08684 whole entry): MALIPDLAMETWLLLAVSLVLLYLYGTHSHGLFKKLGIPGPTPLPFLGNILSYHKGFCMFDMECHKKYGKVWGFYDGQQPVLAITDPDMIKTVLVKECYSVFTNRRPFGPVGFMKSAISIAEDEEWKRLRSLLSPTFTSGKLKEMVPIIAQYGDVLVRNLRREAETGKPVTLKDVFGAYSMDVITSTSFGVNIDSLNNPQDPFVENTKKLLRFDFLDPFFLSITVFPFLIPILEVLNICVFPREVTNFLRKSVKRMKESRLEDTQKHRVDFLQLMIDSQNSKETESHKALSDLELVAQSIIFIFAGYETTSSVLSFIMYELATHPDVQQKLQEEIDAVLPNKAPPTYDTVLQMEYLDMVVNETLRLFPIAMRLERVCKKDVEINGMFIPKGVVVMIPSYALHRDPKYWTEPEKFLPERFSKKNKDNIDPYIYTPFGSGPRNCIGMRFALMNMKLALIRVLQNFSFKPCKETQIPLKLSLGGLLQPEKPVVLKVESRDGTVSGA
Description: as §1, §2, §3, §4

[7] = in vivo; details: oral vs intravenous administration, mice or SD rats, read-out: bioavailability (BA)
Experimental: Materials and Methods for Experiments to Evaluate Oral Absorption
(1) Experimental animals: mice or SD rats were used.
(2) Rearing condition: mice or SD rats were allowed free access to solid feed and sterilized tap water.
(3) Setting of dosage and grouping: Oral administration and intravenous administration were performed with the predetermined dosage. Grouping was set as below. (Dosage was changed per compound)
Oral administration 1 to 30 mg/kg (n=2 to 3)
Intravenous administration 0.5 to 10 mg/kg (n=2 to 3)
(4) Preparation of administration solutions: Oral administration was performed as solution or suspension. Intravenous administration was performed after solubilization.
(5) Routes of administration: Oral administration was performed mandatory into the stomach by oral sonde. […]
(6) Evaluation items: Blood was collected serially and concentration of a compound of the present invention in plasma was measured by LC/MS/MS.
(7) Statistical analysis: About transition of concentration of a compound of the present invention in plasma, the area under the plasma concentration versus time curve (AUC) was calculated by non-linear least-squares method program, WinNonlin (a registered trademark), and bioavailability (BA) of a compound of the present invention was calculated from AUCs of the oral administration group and the intravenous administration group. […]

[8] = in vivo; details: rat, SD rats, intravenous administration
Experimental: Test Example 13: Intravenous Administration Test
Examined experimental materials and method of intravenous administration test
(1) Animals used: SD rats were used.
(2) Rearing conditions: Pellets and sterilized tap water were fed to SD rats ad libitum.
(3) Dosage and grouping: A predetermined dosage was intravenously administered. Groups were set as follows. (Dosage varied for each compound)
Intravenous administration 0.5-1 mg/kg (n=2-3)
(4) Preparation of administration solution: Intravenous administration was performed after solubilization.
(5) Administration method: Intravenous administration was performed with a needle-equipped syringe on the caudal vein.
(6) End point: Blood was collected over time, and the plasma concentration of the compound of the present invention was measured using LC/MS/MS.
(7) Statistical analysis: As for the transition of the plasma concentration of the compound of the present invention, the total body clearance (CLtot) and the elimination half-life (t1/2, z) were calculated using nonlinear least-squares program WinNonlin®.

T1 sequence (P11712 whole entry): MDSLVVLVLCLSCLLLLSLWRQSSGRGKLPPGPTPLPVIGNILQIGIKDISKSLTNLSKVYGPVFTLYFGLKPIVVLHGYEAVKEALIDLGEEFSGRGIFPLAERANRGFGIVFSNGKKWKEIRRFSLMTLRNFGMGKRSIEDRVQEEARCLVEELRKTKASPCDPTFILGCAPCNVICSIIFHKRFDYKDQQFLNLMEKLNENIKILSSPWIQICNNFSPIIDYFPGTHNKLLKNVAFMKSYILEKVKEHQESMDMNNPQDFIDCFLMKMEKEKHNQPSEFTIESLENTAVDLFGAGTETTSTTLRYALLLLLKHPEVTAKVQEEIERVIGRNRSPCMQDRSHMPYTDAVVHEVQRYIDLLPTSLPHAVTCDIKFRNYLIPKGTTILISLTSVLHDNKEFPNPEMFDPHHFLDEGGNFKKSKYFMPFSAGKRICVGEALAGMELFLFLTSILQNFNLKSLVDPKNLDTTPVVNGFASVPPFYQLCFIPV

O=C1c2c(O)c(=O)ccn2N([C@@H]2c3ccccc3SCc3c2ccc(F)c3F)[C@@H]2COCCN12 [III-2]
EC50 [1]: 0.00113 µM
IC50 [2]: > 20 µM
IC50 [3]: > 20 µM
IC50 [4]: > 20 µM
IC50 [5]: > 20 µM
IC50 [6]: > 20 µM
bioavailability [7]: 4.2%
half-life ([8]; read-out: elimination half-life (t1/2, z) (converted)): 3.4 h
clearance ([8]; read-out: total body clearance (CLtot)): 16.4 mL/min/kg
